Measured values from ChEMBL document CHEMBL5465560, “Selectivity Literature for EUbOPEN Chemogenomic Library” (2024).

Experiments:
[1] = target: Myosin-IIIa (Homo sapiens) (UniProt Q8NEV4); assay: Selectivity interaction (KinomeScan (DiscoverX)) EUB0001049a MYO3A; conditions: at 1 µM
[2] = target: T1, Aurora kinase A (Homo sapiens) (UniProt O14965); assay: Selectivity interaction (Millipore kinase profiler) EUB0000124b STK6; conditions: at 10 µM
T1 sequence (whole entry): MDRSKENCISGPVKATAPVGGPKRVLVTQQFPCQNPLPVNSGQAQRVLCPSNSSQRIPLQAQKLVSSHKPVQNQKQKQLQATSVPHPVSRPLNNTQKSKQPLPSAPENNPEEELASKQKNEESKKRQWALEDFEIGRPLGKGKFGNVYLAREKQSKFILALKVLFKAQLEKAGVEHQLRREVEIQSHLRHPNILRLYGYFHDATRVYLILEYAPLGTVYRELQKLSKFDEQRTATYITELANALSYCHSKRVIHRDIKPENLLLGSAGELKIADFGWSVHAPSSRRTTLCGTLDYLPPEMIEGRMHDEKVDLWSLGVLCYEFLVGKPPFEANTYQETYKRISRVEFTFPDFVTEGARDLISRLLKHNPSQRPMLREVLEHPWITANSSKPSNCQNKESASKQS

[3] = target: Histone-lysine N-methyltransferase PRDM9 (Homo sapiens) (UniProt Q9NQV7); conditions: at 1 µM
Sequence of Histone-lysine N-methyltransferase PRDM9 (Homo sapiens) (Q9NQV7 whole entry): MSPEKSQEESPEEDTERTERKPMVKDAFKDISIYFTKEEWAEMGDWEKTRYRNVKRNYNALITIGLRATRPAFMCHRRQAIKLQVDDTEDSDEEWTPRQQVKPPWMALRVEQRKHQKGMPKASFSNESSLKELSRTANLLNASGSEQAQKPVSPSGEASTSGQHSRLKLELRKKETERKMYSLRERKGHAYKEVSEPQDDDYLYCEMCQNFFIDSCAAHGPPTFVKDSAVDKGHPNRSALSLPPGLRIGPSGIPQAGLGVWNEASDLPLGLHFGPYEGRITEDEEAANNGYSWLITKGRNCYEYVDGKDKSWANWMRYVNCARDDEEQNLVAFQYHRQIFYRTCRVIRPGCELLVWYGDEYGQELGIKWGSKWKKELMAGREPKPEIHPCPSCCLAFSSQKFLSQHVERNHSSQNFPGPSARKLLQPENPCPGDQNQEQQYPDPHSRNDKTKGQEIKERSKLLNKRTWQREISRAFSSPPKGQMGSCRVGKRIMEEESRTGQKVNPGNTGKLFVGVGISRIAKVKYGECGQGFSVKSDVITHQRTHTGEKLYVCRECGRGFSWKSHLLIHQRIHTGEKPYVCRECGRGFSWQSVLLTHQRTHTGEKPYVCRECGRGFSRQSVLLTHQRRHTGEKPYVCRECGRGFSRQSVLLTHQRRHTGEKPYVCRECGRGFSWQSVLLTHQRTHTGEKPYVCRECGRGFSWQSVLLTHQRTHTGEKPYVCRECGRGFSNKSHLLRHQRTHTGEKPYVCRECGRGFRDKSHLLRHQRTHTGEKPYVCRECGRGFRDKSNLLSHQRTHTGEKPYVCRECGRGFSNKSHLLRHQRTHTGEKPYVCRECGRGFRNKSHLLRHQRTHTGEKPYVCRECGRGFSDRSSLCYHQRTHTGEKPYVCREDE

[4] = target: T2, Muscarinic acetylcholine receptor M2 (Homo sapiens) (UniProt P08172); assay: Selectivity interaction (GPCR panel (PDSP screen)) EUB0001079a CHRM2; conditions: at 10 µM
T2 sequence (whole entry): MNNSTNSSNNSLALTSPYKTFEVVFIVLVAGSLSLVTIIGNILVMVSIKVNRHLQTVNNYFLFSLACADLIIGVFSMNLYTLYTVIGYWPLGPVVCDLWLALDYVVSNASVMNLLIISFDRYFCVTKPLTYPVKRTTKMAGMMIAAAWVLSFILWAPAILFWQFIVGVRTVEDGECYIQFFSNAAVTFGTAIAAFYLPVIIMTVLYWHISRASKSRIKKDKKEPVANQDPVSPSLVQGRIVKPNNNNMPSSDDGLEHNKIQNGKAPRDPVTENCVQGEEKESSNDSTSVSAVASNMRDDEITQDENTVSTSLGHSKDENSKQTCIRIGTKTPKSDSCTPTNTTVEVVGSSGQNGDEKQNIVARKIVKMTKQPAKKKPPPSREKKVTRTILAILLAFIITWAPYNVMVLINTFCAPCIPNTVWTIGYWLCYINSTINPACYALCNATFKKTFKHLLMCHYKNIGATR

[5] = target: T3, Tyrosine-protein kinase ITK/TSK (Homo sapiens) (UniProt Q08881); assay: Selectivity interaction (KinomeScan (DiscoverX)) EUB0001079a ITK; conditions: at 1 µM
T3 sequence (whole entry): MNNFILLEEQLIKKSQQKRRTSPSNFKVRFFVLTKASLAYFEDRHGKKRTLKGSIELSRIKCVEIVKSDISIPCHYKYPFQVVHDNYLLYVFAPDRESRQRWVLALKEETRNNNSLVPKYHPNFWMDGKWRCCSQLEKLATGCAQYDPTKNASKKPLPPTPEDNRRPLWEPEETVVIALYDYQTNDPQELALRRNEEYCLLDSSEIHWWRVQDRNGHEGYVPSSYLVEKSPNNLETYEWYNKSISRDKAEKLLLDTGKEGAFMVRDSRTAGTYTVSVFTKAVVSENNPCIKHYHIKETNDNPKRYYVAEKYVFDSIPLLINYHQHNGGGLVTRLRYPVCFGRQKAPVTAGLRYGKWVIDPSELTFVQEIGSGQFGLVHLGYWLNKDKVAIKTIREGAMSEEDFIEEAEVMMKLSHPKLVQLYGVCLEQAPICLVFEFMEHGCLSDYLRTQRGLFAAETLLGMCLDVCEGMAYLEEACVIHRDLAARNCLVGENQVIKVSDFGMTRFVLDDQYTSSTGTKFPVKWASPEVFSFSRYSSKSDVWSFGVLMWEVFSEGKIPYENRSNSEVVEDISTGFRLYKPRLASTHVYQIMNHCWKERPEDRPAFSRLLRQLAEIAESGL

Thromboxane A2 receptor = Thromboxane A2 receptor (Homo sapiens, UniProt P21731); assay: Selectivity interaction (Thromboxane A2 receptor binding assay, human recombinant) EUB0000877a TBXA2R
[6] = target: Serine/threonine-protein kinase MRCK beta (Homo sapiens) (UniProt Q9Y5S2); conditions: at 10 µM
[7] = target: Calcium/calmodulin-dependent protein kinase type 1D (Homo sapiens) (UniProt Q8IU85); assay: Selectivity interaction (ActivX KiNativ screen (kinase selectivity in THP-1 cell lysates)) EUB0000639a CAMK1D; type: subcellular; conditions: lysate, at 0.2 µM
Sequence of Calcium/calmodulin-dependent protein kinase type 1D (Homo sapiens) (Q8IU85 whole entry, looked up): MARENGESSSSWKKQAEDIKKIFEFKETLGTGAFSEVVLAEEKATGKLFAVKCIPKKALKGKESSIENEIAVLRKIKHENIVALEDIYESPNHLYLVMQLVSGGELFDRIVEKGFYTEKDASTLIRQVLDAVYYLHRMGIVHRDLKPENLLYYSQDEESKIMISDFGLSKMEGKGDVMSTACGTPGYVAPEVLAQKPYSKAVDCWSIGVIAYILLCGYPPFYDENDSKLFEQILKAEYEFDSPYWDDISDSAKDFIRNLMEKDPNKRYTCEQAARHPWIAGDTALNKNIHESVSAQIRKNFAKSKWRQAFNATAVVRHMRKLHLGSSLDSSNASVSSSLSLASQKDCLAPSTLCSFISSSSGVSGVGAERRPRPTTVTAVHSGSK

[8] = target: Dual specificity protein kinase CLK3 (Homo sapiens, UniProt P49761); assay: Selectivity interaction (Kinase panel (Invitrogen)) EUB0000639a CLK3; conditions: at 200 nM
Sequence of Dual specificity protein kinase CLK3 (P49761 whole entry, looked up): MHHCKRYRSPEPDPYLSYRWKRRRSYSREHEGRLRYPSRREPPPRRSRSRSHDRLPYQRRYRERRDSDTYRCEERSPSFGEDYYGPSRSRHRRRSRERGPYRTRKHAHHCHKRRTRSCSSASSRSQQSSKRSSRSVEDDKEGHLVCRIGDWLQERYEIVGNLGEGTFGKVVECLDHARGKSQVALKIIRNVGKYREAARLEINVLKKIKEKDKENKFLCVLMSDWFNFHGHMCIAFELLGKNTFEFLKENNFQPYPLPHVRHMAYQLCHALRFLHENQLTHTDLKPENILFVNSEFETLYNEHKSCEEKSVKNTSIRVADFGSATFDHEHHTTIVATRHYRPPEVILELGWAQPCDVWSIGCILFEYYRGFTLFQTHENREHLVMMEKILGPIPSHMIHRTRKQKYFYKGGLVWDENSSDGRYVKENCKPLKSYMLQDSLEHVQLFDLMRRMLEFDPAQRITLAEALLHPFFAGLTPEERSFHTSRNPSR

[9] = target: Casein kinase II subunit alpha (Homo sapiens, UniProt P68400); assay: Selectivity interaction (Kinase panel (Invitrogen)) EUB0000639a CSNK2A1; conditions: at 200 nM
Sequence of Casein kinase II subunit alpha (P68400 whole entry, looked up): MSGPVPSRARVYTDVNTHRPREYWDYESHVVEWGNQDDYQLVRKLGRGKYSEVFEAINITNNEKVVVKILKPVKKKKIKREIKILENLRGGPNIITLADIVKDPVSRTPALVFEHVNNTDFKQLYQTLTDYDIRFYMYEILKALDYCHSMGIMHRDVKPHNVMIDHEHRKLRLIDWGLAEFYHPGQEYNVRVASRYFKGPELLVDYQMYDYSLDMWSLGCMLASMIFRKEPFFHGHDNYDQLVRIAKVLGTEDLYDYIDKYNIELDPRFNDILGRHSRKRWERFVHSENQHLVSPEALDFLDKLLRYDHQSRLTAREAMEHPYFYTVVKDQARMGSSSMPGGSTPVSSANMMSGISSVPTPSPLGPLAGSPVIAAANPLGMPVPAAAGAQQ

[10] = target: Serine/threonine-protein kinase/endoribonuclease IRE1 (Homo sapiens) (UniProt O75460); assay: Selectivity interaction (Ambit KINOMEscan and KiNATiv profiling in Jurkat cells) EUB0000090b ERN1; type: cell-based; conditions: at 1 µM
[11] = target: Casein kinase I isoform alpha (Homo sapiens, UniProt P48729); assay: Selectivity interaction (KinomeScan (DiscoverX)) EUB0000045b CSNK1A1
Sequence of Casein kinase I isoform alpha (P48729 2-337 limits assumed): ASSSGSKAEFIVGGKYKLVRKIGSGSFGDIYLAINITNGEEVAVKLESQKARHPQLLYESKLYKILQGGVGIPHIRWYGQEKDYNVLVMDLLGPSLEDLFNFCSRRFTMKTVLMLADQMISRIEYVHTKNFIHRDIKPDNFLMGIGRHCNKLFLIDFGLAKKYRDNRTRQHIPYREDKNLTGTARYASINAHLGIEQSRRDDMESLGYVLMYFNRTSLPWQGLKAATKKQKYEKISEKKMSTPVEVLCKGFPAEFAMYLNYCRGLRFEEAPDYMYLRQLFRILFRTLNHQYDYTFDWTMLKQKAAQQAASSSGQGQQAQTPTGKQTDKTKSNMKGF

[12] = target: TRAF2 and NCK-interacting protein kinase (Homo sapiens) (UniProt Q9UKE5); assay: Selectivity interaction (KinomeScan (DiscoverX)) EUB0001619a TNIK; conditions: at 1 µM
Sequence of TRAF2 and NCK-interacting protein kinase (Homo sapiens) (Q9UKE5 whole entry, looked up): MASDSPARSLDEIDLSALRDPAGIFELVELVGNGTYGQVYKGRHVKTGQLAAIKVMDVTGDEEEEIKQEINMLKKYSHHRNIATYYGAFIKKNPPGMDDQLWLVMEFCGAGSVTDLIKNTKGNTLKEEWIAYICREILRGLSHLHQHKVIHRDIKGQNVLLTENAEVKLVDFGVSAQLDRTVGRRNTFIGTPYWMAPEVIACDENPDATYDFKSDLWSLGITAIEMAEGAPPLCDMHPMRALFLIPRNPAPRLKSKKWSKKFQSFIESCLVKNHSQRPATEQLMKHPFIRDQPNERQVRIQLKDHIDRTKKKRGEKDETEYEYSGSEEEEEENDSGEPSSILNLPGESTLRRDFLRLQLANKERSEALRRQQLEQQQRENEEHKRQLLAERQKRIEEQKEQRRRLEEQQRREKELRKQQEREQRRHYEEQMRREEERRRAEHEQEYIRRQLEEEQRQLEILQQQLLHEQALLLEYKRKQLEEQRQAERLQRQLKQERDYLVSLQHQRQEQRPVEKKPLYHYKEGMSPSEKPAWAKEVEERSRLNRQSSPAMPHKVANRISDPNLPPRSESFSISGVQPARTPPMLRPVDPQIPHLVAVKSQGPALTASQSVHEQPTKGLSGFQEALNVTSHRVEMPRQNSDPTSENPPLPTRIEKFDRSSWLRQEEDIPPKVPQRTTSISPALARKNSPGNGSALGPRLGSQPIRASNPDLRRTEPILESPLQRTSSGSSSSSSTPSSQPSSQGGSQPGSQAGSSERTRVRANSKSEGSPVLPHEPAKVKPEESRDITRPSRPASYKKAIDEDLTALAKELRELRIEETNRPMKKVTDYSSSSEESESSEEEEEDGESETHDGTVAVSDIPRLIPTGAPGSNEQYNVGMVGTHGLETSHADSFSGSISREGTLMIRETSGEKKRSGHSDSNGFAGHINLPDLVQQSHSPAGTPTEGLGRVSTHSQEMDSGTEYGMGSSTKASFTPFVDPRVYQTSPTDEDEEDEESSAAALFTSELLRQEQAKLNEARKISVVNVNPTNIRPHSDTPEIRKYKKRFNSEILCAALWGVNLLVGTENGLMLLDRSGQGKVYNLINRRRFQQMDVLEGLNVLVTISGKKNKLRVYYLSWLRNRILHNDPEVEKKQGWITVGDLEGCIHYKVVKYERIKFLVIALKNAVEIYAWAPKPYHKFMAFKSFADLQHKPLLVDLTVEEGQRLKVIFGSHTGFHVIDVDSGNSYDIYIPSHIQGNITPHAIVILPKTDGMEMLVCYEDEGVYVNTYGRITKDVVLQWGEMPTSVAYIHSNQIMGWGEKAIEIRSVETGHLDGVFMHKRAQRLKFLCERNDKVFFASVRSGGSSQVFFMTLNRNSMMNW

[13] = target: MAP kinase-activated protein kinase 2 (Homo sapiens, UniProt P49137); assay: Selectivity interaction (KinomeScan (DiscoverX)) EUB0000695a MAPKAPK2; conditions: at 100 nM
[14] = target: TRAF2 and NCK-interacting protein kinase (Homo sapiens) (UniProt Q9UKE5); assay: Selectivity interaction (KinomeScan (DiscoverX)) EUB0000695a TNIK; conditions: at 100 nM
[15] = target: Tyrosine-protein kinase BTK (Homo sapiens, UniProt Q06187); assay: Selectivity interaction (SelectScreen profiling (Invitrogen)) EUB0000607a BTK; conditions: at 2 µM
[16] = target: Homeodomain-interacting protein kinase 1 (Homo sapiens, UniProt Q86Z02); assay: Selectivity interaction (KinomeScan (DiscoverX)) EUB0000607a HIPK1; conditions: at 10 µM
[17] = target: Serine/threonine-protein kinase PAK 6 (Homo sapiens) (UniProt Q9NQU5); assay: Selectivity interaction (ProQinase) EUB0000171b PAK6; conditions: at 5 µM
[18] = target: Serine/threonine-protein kinase PLK1 (Homo sapiens, UniProt P53350); assay: Selectivity interaction (ProQinase) EUB0000171b PLK1
Sequence of Serine/threonine-protein kinase PLK1 (P53350 whole entry): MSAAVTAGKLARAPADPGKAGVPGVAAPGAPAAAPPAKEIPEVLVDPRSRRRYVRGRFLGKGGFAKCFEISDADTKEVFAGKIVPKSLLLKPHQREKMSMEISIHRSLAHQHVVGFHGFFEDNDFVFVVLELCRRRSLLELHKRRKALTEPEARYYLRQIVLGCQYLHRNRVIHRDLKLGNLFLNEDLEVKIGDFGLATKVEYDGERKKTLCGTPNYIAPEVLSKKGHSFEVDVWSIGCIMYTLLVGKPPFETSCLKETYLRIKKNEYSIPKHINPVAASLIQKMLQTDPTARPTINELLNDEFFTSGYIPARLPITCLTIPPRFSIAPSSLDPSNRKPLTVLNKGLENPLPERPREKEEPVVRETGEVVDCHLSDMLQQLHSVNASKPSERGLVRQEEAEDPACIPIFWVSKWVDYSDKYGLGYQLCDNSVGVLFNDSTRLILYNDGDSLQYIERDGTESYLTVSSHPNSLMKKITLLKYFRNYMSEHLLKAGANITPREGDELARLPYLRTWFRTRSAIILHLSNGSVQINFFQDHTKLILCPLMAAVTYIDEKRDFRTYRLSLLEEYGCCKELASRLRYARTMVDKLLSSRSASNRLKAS

[19] = target: Protein-tyrosine kinase 6 (Homo sapiens, UniProt Q13882); assay: Selectivity interaction (ProQinase) EUB0000171b PTK6
Sequence of Protein-tyrosine kinase 6 (Q13882 whole entry, looked up): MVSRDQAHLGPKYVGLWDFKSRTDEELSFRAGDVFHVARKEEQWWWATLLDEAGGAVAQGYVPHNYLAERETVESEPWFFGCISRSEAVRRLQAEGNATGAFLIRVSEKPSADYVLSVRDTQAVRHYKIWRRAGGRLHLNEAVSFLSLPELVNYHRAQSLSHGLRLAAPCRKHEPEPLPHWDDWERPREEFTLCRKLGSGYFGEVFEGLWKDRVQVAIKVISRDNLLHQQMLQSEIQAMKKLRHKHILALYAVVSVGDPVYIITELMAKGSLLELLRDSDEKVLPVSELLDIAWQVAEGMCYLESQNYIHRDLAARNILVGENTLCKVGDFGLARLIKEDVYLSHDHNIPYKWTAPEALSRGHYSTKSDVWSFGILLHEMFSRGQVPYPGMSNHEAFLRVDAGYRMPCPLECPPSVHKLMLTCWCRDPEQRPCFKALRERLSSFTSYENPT

`COc1cc(Nc2nc(C)cc(-c3cnn4nc(OC)ccc34)n2)cc(C(F)(F)F)c1` gave a % of control [1] of 87%.

In the case of `CC(=O)Nc1cccc(-n2c(=O)n(C3CC3)c(=O)c3c(Nc4ccc(I)cc4F)n(C)c(=O)c(C)c32)c1`, the % of control [2] is reported as 124%.

In the case of `CNCCN1CCC(c2cc(CN(C)C(=O)c3cccc(Oc4ccccc4)c3)ccn2)CC1`, the % activity [3] is reported as > 90%.

`Nc1cnc(N2CCc3cc(S(=O)(=O)Nc4c(F)cc(Cl)cc4F)cc(N4CCCC4=O)c32)nc1` [TP-020n] gave a % of inhibition [4] of 3.7% and a % of control [5] of 100%.

For `CCC(=O)N1CC[C@H](Nc2ncnc3c2CN(c2cnc(OC)c(C(F)(F)F)c2)CC3)C1` [LENIOLISIB], the IC50 (Thromboxane A2 receptor) was > 30 µM.

Compound `CCN(CC)CCCCNc1ncc2cc(-c3cc(OC)cc(OC)c3)c(NC(=O)NC(C)(C)C)nc2n1` has a % of control [6] of 100%.

`CC[C@@H]1[C@H](F)C(=O)N[C@@H]1COc1nccc2cc(C(N)=O)c(OC)cc12` [ZIMLOVISERTIB] was tested, and the % of inhibition [7] was 5.2%, the % of inhibition [8] was 8.76% and the % of inhibition [9] was -1.15%.

For `CN(C)C/C=C/C(=O)Nc1ccc(C(=O)N2CCCC(Nc3ncc(Cl)c(-c4c[nH]c5ccccc45)n3)C2)cc1` (stereo not drawn), the % of control [10] was 92%.

In the case of `C=CC(=O)Nc1cc(-n2c(=O)ccc3cnc4ccc(-c5ccc(NS(C)(=O)=O)cc5)cc4c32)ccc1C`, the % of control ([11]; at 1 µM) is reported as 100% and the % of control ([11]; at 10 µM) is reported as 100%.

Compound `N#Cc1cccc(-c2c[nH]c3ncnc(N4CCOCC4)c23)c1` has a % of control [12] of 45%.

In the case of `Cc1cc(F)c(C(=O)Nc2cccc(-c3nncn3C(C)C)n2)cc1-n1cnc(C2CC2)c1`, the % of control [13] is reported as 57% and the % of control [14] is reported as 78%.

Compound `CNC(=O)Nc1ccc(-c2nc(N3CC4CCC(C3)O4)c3cnn(C4CCC5(CC4)OCCO5)c3n2)cc1` has a % of inhibition [15] of 3% and a % of control [16] of 100%.

For `C=CC(=O)Nc1cccc(C(=O)Nc2ccc(Nc3cc(-c4[nH]c(SC)nc4C)ccn3)cc2)c1`, the % of control [17] was 67%, the % of control ([18]; at 1 µM) was 98% and the % of control ([18]; at 5 µM) was 96%. It also gave a % of control ([19]; at 1 µM) of 101% and a % of control ([19]; at 5 µM) of 105%.
